Tested on: MV-4-11 cells
Test: Gene expression microarray analysis (Affymetrix PrimeView) and GSEA
Assay type: cell-based, human
Design: RFU PODN (11730768_x_at) / Fold change /veh PODN (11730768_x_at) / RFU LINC00158 (11744669_a_at) / Fold change /veh LINC00158 (11744669_a_at) / RFU DUSP10 (11751237_a_at) / Fold change /veh DUSP10 (11751237_a_at) / RFU ID3 (11757404_x_at) / Fold change /veh ID3 (11757404_x_at) / RFU PLEKHG5 (11737974_s_at) / Fold change /veh PLEKHG5 (11737974_s_at) / RFU LRRC4B (11730491_at) / Fold change /veh LRRC4B (11730491_at) / RFU GIMAP4 (11747438_a_at) / Fold change /veh GIMAP4 (11747438_a_at) / RFU KRT8 (11758183_x_at) / Fold change /veh KRT8 (11758183_x_at) / RFU CNN1 (11734310_a_at) / Fold change /veh CNN1 (11734310_a_at) / RFU VPS37D (11726825_at) / Fold change /veh VPS37D (11726825_at) / RFU C10orf10 (11716522_x_at) / Fold change /veh C10orf10 (11716522_x_at) / RFU KIR2DL2 /// KIR2DL4 /// KIR2DL5A /// KIR2DL5B /// KIR2DS1 /// KIR2DS2 /// KIR2DS3 /// KIR2DS4 /// KIR3DL3 /// KIR3DL3 /// KIR3DS1 (11738374_at) / Fold change /veh KIR2DL2 /// KIR2DL4 /// KIR2DL5A /// KIR2DL5B /// KIR2DS1 /// KIR2DS2 /// KIR2DS3 /// KIR2DS4 /// KIR3DL3 /// KIR3DL3 /// KIR3DS1 (11738374_at) / RFU C1QL1 (11718748_at) / Fold change /veh C1QL1 (11718748_at) / RFU TMPRSS4 (11747572_a_at) / Fold change /veh TMPRSS4 (11747572_a_at) / RFU HAMP (11756126_x_at) / Fold change /veh HAMP (11756126_x_at) / RFU RNFT2 (11725882_a_at) / Fold change /veh RNFT2 (11725882_a_at) / RFU NR4A2 (11747474_a_at) / Fold change /veh NR4A2 (11747474_a_at) / RFU ABCC12 (11746883_a_at) / Fold change /veh ABCC12 (11746883_a_at) / RFU TMEM136 (11760407_x_at) / Fold change /veh TMEM136 (11760407_x_at) / RFU CLDN22 /// WWC2 (11732394_at) / Fold change /veh CLDN22 /// WWC2 (11732394_at) / RFU HLA-DPB1 (11760878_x_at) / Fold change /veh HLA-DPB1 (11760878_x_at) / RFU SPINT1 (11716480_a_at) / Fold change /veh SPINT1 (11716480_a_at) / RFU GAP43 (11754022_s_at) / Fold change /veh GAP43 (11754022_s_at) / RFU A4GNT (11735810_at) / Fold change /veh A4GNT (11735810_at) / RFU PRB3 (11715151_x_at) / Fold change /veh PRB3 (11715151_x_at) / RFU TUBB4B (11761932_at) / Fold change /veh TUBB4B (11761932_at) / RFU CAPN14 (11732068_a_at) / Fold change /veh CAPN14 (11732068_a_at) / RFU TMCC2 (11721928_a_at) / Fold change /veh TMCC2 (11721928_a_at) / RFU IRGQ (11745062_a_at) / Fold change /veh IRGQ (11745062_a_at) / RFU FAM174B (11720279_a_at) / Fold change /veh FAM174B (11720279_a_at) / RFU TMPRSS4 (11748680_a_at) / Fold change /veh TMPRSS4 (11748680_a_at) / RFU FAM212B (11763350_a_at) / Fold change /veh FAM212B (11763350_a_at) / RFU PLEKHG5 (11743358_a_at) / Fold change /veh PLEKHG5 (11743358_a_at) / RFU ZSCAN30 (11745921_a_at) / Fold change /veh ZSCAN30 (11745921_a_at) / RFU CMKLR1 (11741424_a_at) / Fold change /veh CMKLR1 (11741424_a_at) / RFU LOC101060620 /// MAPK8IP1 (11723275_at) / Fold change /veh LOC101060620 /// MAPK8IP1 (11723275_at) / RFU SPTSSB (11747773_x_at) / Fold change /veh SPTSSB (11747773_x_at) / RFU PRSS12 (11739890_at) / Fold change /veh PRSS12 (11739890_at) / RFU BIN1 (11741810_x_at) / Fold change /veh BIN1 (11741810_x_at) / RFU WNT11 (11732464_a_at) / Fold change /veh WNT11 (11732464_a_at) / RFU C10orf10 (11716521_a_at) / Fold change /veh C10orf10 (11716521_a_at) / RFU C5orf56 (11738089_at) / Fold change /veh C5orf56 (11738089_at) / RFU CYB561 (11721691_x_at) / Fold change /veh CYB561 (11721691_x_at) / RFU ANKRD19P (11752326_a_at) / Fold change /veh ANKRD19P (11752326_a_at) / RFU OR2T12 /// OR2T33 /// OR2T8 (11738714_s_at) / Fold change /veh OR2T12 /// OR2T33 /// OR2T8 (11738714_s_at) / RFU VCAN (11748164_a_at) / Fold change /veh VCAN (11748164_a_at) / RFU JSRP1 (11732532_at) / Fold change /veh JSRP1 (11732532_at) / RFU KRTAP10-11 (11738290_x_at) / Fold change /veh KRTAP10-11 (11738290_x_at) / RFU MYO3A (11730013_a_at) / Fold change /veh MYO3A (11730013_a_at) / RFU EBF3 (11725865_a_at) / Fold change /veh EBF3 (11725865_a_at) / RFU CAMK2N1 (11719241_x_at) / Fold change /veh CAMK2N1 (11719241_x_at) / RFU C5orf56 (11738088_a_at) / Fold change /veh C5orf56 (11738088_a_at) / RFU OLFML3 (11715873_a_at) / Fold change /veh OLFML3 (11715873_a_at) / RFU LOC100653217 /// NTM (11731650_a_at) / Fold change /veh LOC100653217 /// NTM (11731650_a_at) / RFU MAPK11 (11762145_a_at) / Fold change /veh MAPK11 (11762145_a_at) / RFU FIZ1 (11724087_x_at) / Fold change /veh FIZ1 (11724087_x_at) / RFU OASL (11726364_x_at) / Fold change /veh OASL (11726364_x_at) / RFU SOX15 (11748057_x_at) / Fold change /veh SOX15 (11748057_x_at) / RFU CD79A (11719716_a_at) / Fold change /veh CD79A (11719716_a_at) / RFU HIST1H1D (11736915_at) / Fold change /veh HIST1H1D (11736915_at) / RFU CASKIN2 (11723855_a_at) / Fold change /veh CASKIN2 (11723855_a_at) / RFU LOC730098 (11760151_x_at) / Fold change /veh LOC730098 (11760151_x_at) / RFU OR4N2 (11742367_at) / Fold change /veh OR4N2 (11742367_at) / RFU PRRT2 (11749266_a_at) / Fold change /veh PRRT2 (11749266_a_at) / RFU SNX32 (11753110_a_at) / Fold change /veh SNX32 (11753110_a_at) / RFU CDHR5 (11726645_a_at) / Fold change /veh CDHR5 (11726645_a_at) / RFU RCAN1 (11760418_a_at) / Fold change /veh RCAN1 (11760418_a_at) / RFU FAM167A (11723789_a_at) / Fold change /veh FAM167A (11723789_a_at) / RFU FAM26E (11764081_at) / Fold change /veh FAM26E (11764081_at) / RFU ISYNA1 (11749810_s_at) / Fold change /veh ISYNA1 (11749810_s_at) / RFU ACY1 (11761880_at) / Fold change /veh ACY1 (11761880_at) / RFU 11764098_at / Fold change /veh 11764098_at / RFU SAMD14 (11745864_x_at) / Fold change /veh SAMD14 (11745864_x_at) / RFU NPB (11741838_a_at) / Fold change /veh NPB (11741838_a_at) / RFU TMPRSS6 (11731388_a_at) / Fold change /veh TMPRSS6 (11731388_a_at) / RFU KRTAP10-2 (11738614_at) / Fold change /veh KRTAP10-2 (11738614_at) / RFU ARHGAP8 /// PRR5-ARHGAP8 (11727945_x_at) / Fold change /veh ARHGAP8 /// PRR5-ARHGAP8 (11727945_x_at) / RFU KRTAP5-7 /// NADSYN1 (11734609_at) / Fold change /veh KRTAP5-7 /// NADSYN1 (11734609_at) / RFU RASL12 (11751679_a_at) / Fold change /veh RASL12 (11751679_a_at) / RFU CDKN2B (11736163_a_at) / Fold change /veh CDKN2B (11736163_a_at) / RFU PRF1 (11729649_at) / Fold change /veh PRF1 (11729649_at) / RFU, ZNF638 /// ZNF638-IT1 / Fold change vs veh, ZNF638 /// ZNF638-IT1 / RFU, PANK3 / Fold change vs veh, PANK3 / RFU, SH3YL1 / Fold change vs veh, SH3YL1 / RFU, ZEB2 / Fold change vs veh, ZEB2 / RFU, NRIP1 / Fold change vs veh, NRIP1 / RFU, PTTG1IP / Fold change vs veh, PTTG1IP / RFU, CAPN2 / Fold change vs veh, CAPN2 / RFU, MED14 / Fold change vs veh, MED14 / RFU, SNORA58 / Fold change vs veh, SNORA58 / RFU, C1orf63 / Fold change vs veh, C1orf63 / RFU, LRRFIP1 / Fold change vs veh, LRRFIP1 / RFU, NDUFAF7 / Fold change vs veh, NDUFAF7 / RFU, SLC12A2 / Fold change vs veh, SLC12A2 / RFU, IBTK / Fold change vs veh, IBTK / RFU, ESF1 / Fold change vs veh, ESF1 / Fold change vs veh, TMEM50B / RFU, TAOK1 / Fold change vs veh, TAOK1 / RFU, ACBD3 / Fold change vs veh, ACBD3 / RFU, TMA16 / Fold change vs veh, TMA16 / RFU, RWDD3 / Fold change vs veh, RWDD3 / RFU, BCAT1 / Fold change vs veh, BCAT1 / RFU, EDEM3 / Fold change vs veh, EDEM3 / RFU, TMEM33 / Fold change vs veh, TMEM33 / RFU, WDR75 / Fold change vs veh, WDR75 / RFU, AHCTF1 / Fold change vs veh, AHCTF1 / RFU, TFRC / Fold change vs veh, TFRC / RFU, ZDHHC17 / Fold change vs veh, ZDHHC17 / RFU, NOM1 / Fold change vs veh, NOM1 / RFU, ARL8B / Fold change vs veh, ARL8B / RFU, ZBTB11 / Fold change vs veh, ZBTB11 / RFU, TAMM41 / Fold change vs veh, TAMM41 / RFU, KIAA1704 /// LOC100996395 / Fold change vs veh, KIAA1704 /// LOC100996395 / RFU, ING1 / Fold change vs veh, ING1 / RFU, TRMT61B / Fold change vs veh, TRMT61B / RFU, FUBP3 / Fold change vs veh, FUBP3 / RFU, TP53 / Fold change vs veh, TP53 / RFU, TNKS2 / Fold change vs veh, TNKS2 / RFU, ZFP14 / Fold change vs veh, ZFP14 / RFU, ACTR2 / Fold change vs veh, ACTR2 / RFU, PPP3R1 / Fold change vs veh, PPP3R1 / RFU, PIK3R1 / Fold change vs veh, PIK3R1 / RFU, HNRNPA1 / Fold change vs veh, HNRNPA1 / RFU, RNF170 / Fold change vs veh, RNF170 / RFU, ZNF28 / Fold change vs veh, ZNF28 / RFU, RNGTT / Fold change vs veh, RNGTT / RFU, OGT / Fold change vs veh, OGT / RFU, BRD1 / Fold change vs veh, BRD1 / RFU, MARS / Fold change vs veh, MARS / RFU, ZNF655 / Fold change vs veh, ZNF655 / RFU, FAHD1 / Fold change vs veh, FAHD1 / RFU, BDP1 / Fold change vs veh, BDP1 / RFU, LRRCC1 / Fold change vs veh, LRRCC1 / RFU, ARID1A / Fold change vs veh, ARID1A / RFU, ZNF146 / Fold change vs veh, ZNF146 / RFU, ZNF330 / Fold change vs veh, ZNF330 / RFU, GPN3 / Fold change vs veh, GPN3 / RFU, C9orf123 / Fold change vs veh, C9orf123 / RFU, N4BP2L2 / Fold change vs veh, N4BP2L2 / RFU, ARFIP1 / Fold change vs veh, ARFIP1 / RFU, FAM179B / Fold change vs veh, FAM179B / RFU, BCL10 / Fold change vs veh, BCL10 / RFU, UHRF1BP1L / Fold change vs veh, UHRF1BP1L / RFU, BET1 / Fold change vs veh, BET1 / RFU, CNOT2 / Fold change vs veh, CNOT2 / RFU, ZNF268 / Fold change vs veh, ZNF268 / Fold change vs veh, ZNF507 / RFU, DGCR2 / Fold change vs veh, DGCR2 / RFU, WDSUB1 / Fold change vs veh, WDSUB1 / Fold change vs veh, HSP90B1 /// MIR3652 / RFU, ADSS / Fold change vs veh, ADSS / RFU, GK / Fold change vs veh, GK / RFU, ZNF148 / Fold change vs veh, ZNF148 / RFU, TAF9 / Fold change vs veh, TAF9 / RFU, SLC1A5 / Fold change vs veh, SLC1A5 / RFU, SLMO2 / Fold change vs veh, SLMO2 / RFU, ABCC4 / Fold change vs veh, ABCC4 / RFU, LOC101060439 /// RAP1B / Fold change vs veh, LOC101060439 /// RAP1B / RFU, RFX7 / Fold change vs veh, RFX7 / RFU, GTPBP10 / Fold change vs veh, GTPBP10 / RFU, CNEP1R1 / Fold change vs veh, CNEP1R1 / RFU, BIVM-ERCC5 /// ERCC5 / Fold change vs veh, BIVM-ERCC5 /// ERCC5 / RFU, ILF3 / Fold change vs veh, ILF3 / RFU 11762660_at / Fold change /veh 11762660_at / RFU VCAN (11757783_s_at) / Fold change /veh VCAN (11757783_s_at) / RFU DDX43 (11728927_at) / Fold change /veh DDX43 (11728927_at) / RFU KRT8 (11758188_x_at) / Fold change /veh KRT8 (11758188_x_at) / RFU NKD1 (11759106_at) / Fold change /veh NKD1 (11759106_at) / RFU SRD5A1 (11742802_a_at) / Fold change /veh SRD5A1 (11742802_a_at) / RFU TPSAB1 /// TPSB2 (11721975_s_at) / Fold change /veh TPSAB1 /// TPSB2 (11721975_s_at) / RFU GSTM3 (11746129_a_at) / Fold change /veh GSTM3 (11746129_a_at) / RFU IL23R (11737362_x_at) / Fold change /veh IL23R (11737362_x_at) / RFU TMEM51 (11727254_a_at) / Fold change /veh TMEM51 (11727254_a_at) / RFU PIWIL2 (11732686_x_at) / Fold change /veh PIWIL2 (11732686_x_at) / RFU ORM1 (11744905_x_at) / Fold change /veh ORM1 (11744905_x_at) / RFU CCDC152 (11743942_at) / Fold change /veh CCDC152 (11743942_at) / RFU ECM1 (11717891_a_at) / Fold change /veh ECM1 (11717891_a_at) / RFU IL23R (11748794_a_at) / Fold change /veh IL23R (11748794_a_at) / RFU TNFAIP8L3 (11732012_x_at) / Fold change /veh TNFAIP8L3 (11732012_x_at) / RFU MBOAT4 (11741988_at) / Fold change /veh MBOAT4 (11741988_at) / RFU 11764193_at / Fold change /veh 11764193_at / RFU TMEM53 (11763286_at) / Fold change /veh TMEM53 (11763286_at) / RFU MAGEB2 (11727129_at) / Fold change /veh MAGEB2 (11727129_at) / RFU TMEM200A (11744735_a_at) / Fold change /veh TMEM200A (11744735_a_at) / RFU CCDC152 (11751479_a_at) / Fold change /veh CCDC152 (11751479_a_at) / RFU FAM211A (11726209_a_at) / Fold change /veh FAM211A (11726209_a_at) / RFU RGS16 (11746705_a_at) / Fold change /veh RGS16 (11746705_a_at) / RFU VCAN (11755009_s_at) / Fold change /veh VCAN (11755009_s_at) / RFU RHOB (11743442_s_at) / Fold change /veh RHOB (11743442_s_at) / RFU RGS16 (11720943_a_at) / Fold change /veh RGS16 (11720943_a_at) / RFU RGS16 (11720944_at) / Fold change /veh RGS16 (11720944_at) / RFU, VPS4B / Fold change vs veh, VPS4B / RFU, CREB1 / Fold change vs veh, CREB1 / RFU, DNAJC13 / Fold change vs veh, DNAJC13 / RFU, GNAQ / Fold change vs veh, GNAQ / RFU, CDK5R1 / Fold change vs veh, CDK5R1 / RFU, ZRANB3 / Fold change vs veh, ZRANB3 / RFU, CUL4A / Fold change vs veh, CUL4A / RFU, CCNY / Fold change vs veh, CCNY / RFU, UFL1 / Fold change vs veh, UFL1 / RFU, COG3 / Fold change vs veh, COG3 / RFU, DIAPH2 / Fold change vs veh, DIAPH2 / RFU, SKA2 / Fold change vs veh, SKA2 / RFU, AFF3 / Fold change vs veh, AFF3 / RFU, LMF1 / Fold change vs veh, LMF1 / RFU, IPO11 / Fold change vs veh, IPO11 / RFU, DFFB / Fold change vs veh, DFFB / RFU, FOXP1 / Fold change vs veh, FOXP1 / RFU, CARD8 / Fold change vs veh, CARD8 / RFU, STRN3 / Fold change vs veh, STRN3 / RFU, ADK / Fold change vs veh, ADK / RFU, RASSF2 / Fold change vs veh, RASSF2 / RFU, WIPF1 / Fold change vs veh, WIPF1 / RFU, LARP1B / Fold change vs veh, LARP1B / RFU, RASA1 / Fold change vs veh, RASA1 / RFU, RB1 / Fold change vs veh, RB1 / RFU, PPFIA1 / Fold change vs veh, PPFIA1 / RFU, MAT2A / Fold change vs veh, MAT2A / RFU, CCT5 / Fold change vs veh, CCT5 / RFU, WDR92 / Fold change vs veh, WDR92 / RFU, CUX1 / Fold change vs veh, CUX1 / RFU, TTC7A / Fold change vs veh, TTC7A / RFU, TMEM135 / Fold change vs veh, TMEM135 / RFU, DEPTOR / Fold change vs veh, DEPTOR / RFU, CPM / Fold change vs veh, CPM / RFU, DNAJB6 / Fold change vs veh, DNAJB6 / RFU, CACNA2D3 / Fold change vs veh, CACNA2D3 / RFU, DTX4 / Fold change vs veh, DTX4 / RFU, TFCP2 / Fold change vs veh, TFCP2 / RFU, GMCL1 /// GMCL1P1 / Fold change vs veh, GMCL1 /// GMCL1P1 / RFU, AEBP2 / Fold change vs veh, AEBP2 / RFU, SNHG1 /// SNORD22 /// SNORD25 /// SNORD26 /// SNORD27 /// SNORD28 /// SNORD29 /// SNORD31 / Fold change vs veh, SNHG1 /// SNORD22 /// SNORD25 /// SNORD26 /// SNORD27 /// SNORD28 /// SNORD29 /// SNORD31 / Fold change (Aza/veh), C12orf56 (ProbeSet 11735607_a_at) / Fold change (ACY-1035/veh), C12orf56 (ProbeSet 11735607_a_at) / Fold change (Aza/veh), FGFR1OP (ProbeSet 11751329_s_at) / Fold change (ACY-1035/veh), FGFR1OP (ProbeSet 11751329_s_at) / Fold change (Aza/veh), VPS36 (ProbeSet 11739960_a_at) / Fold change (ACY-1035/veh), VPS36 (ProbeSet 11739960_a_at) / RFU SYPL1 (11715823_x_at) / Fold change /veh SYPL1 (11715823_x_at) / RFU IGFBP7 (11715501_s_at) / Fold change /veh IGFBP7 (11715501_s_at) / RFU REEP3 (11722064_at) / Fold change /veh REEP3 (11722064_at) / RFU IGLL1 (11728026_x_at) / Fold change /veh IGLL1 (11728026_x_at): dose or concentration left out as unconfirmed
Settings: ProbeSet 11743567_s_at; LIST B

Nc1ncn([C@@H]2O[C@H](CO)[C@@H](O)[C@H]2O)c(=O)n1 [azacitidine]
Fold change vs veh, ACBD3: 1.04

— publication PMC5218480 (PLoS ONE, 2017)
